Results from US6617350B2, “Inhibitors of aspartyl protease” (priority 1999, dated 2003).
Where two headings read alike, the source gives them in different places.

Experiments:
HIV-1 protease = HIV-1 protease (Human immunodeficiency virus type 1 group M subtype B, UniProt P04585); assay: biochemical
HIV-1 (strain IIIB) = assay: microbe, parasite or virus in culture; format: cell-based
[1] = Table 12, HIV-1 protease, read-out: Ki
[2] = Human immunodeficiency virus 1, IIIB, MT4, Table 12, anti-viral potency in MT-4 cells, read-out: IC50
[3] = Human immunodeficiency virus 1, IIIB, MT4, antiviral assay, MT4 cells infected with HIV-1 (strain IIIB), class symbol, read-out: IC50 (activity range)
[4] = Human immunodeficiency virus 1, IIIB, MT4, Table 13, MT-4 cell based assay, class symbol, read-out: IC50

| Structure (SMILES) | IC50 (HIV-1 (strain IIIB); [3]) [nM] | Ki (HIV-1 protease; [1]) [nM] | further results |
| --- | --- | --- | --- |
| CN(C)C(=O)NCCCCC(C)(C)CN(CC(O)C(Cc1ccccc1)NC(=O)OC1COC2OCCC12)S(=O)(=O)c1ccc2c(c1)OCO2 [Compound 249, (3R,3aS,6aR)hexahydrofuro[2,3-b]furan-3-yl N-(1S,2R)-3-[(1,3-benzodioxol-5-ylsulfonyl)(6-[(dimethylamino)carbonyl]amino-2,2-dimethylhexyl)amino]-1-benzyl-2-hydroxypropylcarbamate] |  | < 1 | IC50 (HIV-1 (strain IIIB); [2]): ≤ 100 nM |
| COc1ccc(S(=O)(=O)N(CCCCC2(C)OCCO2)C[C@@H](O)[C@H](Cc2ccccc2)NC(=O)OC(C)(C)C)cc1 [Compound 204, tert-Butyl N-((1S,2R)-1-benzyl-2-hydroxy-3-[(4-methoxyphenyl)sulfonyl][4-(2-methyl-1,3-dioxolan-2-yl)butyl]aminopropyl)carbamate] |  | 1 to 10 | IC50 (HIV-1 (strain IIIB); Table 12, anti-viral potency in MT-4 cells, read-out: IC50): 500 to 1000 nM |
| CC(C)(CCC#N)CN(C[C@@H](O)[C@H](Cc1ccccc1)NC(=O)OC1COCOC1)C(=O)OCc1ccccc1 [Compound 28, (4-Cyano-2,2-dimethyl-butyl)-[(2R,3S)-3-([1,3]dioxan-5-yloxycarbonylamino)-2-hydroxy-4-phenyl-butyl]-carbamic acid benzyl ester] |  | < 1 | IC50 (HIV-1 (strain IIIB); [2]): 100 to 500 nM |
| CC(C)(CCCCN)CN(C[C@@H](O)[C@H](Cc1ccccc1)NC(=O)O[C@H]1CCOC1)S(=O)(=O)c1ccc2c(c1)OCO2 [Compound 295, (3S)-tetrahydro-3-furanyl N-(1S,2R)-3-[(1,3-benzodioxol-5-ylsulfonyl)(6-amino-2,2-dimethylhexyl)amino]-1-benzyl-2-hydroxypropylcarbamate] | 100 to 500 |  |  |
| COc1ccc(S(=O)(=O)N(CC(O)[C@H](Cc2ccccc2)NC(=O)OC2COC3OCCC23)CC(C)(C)CCOC(N)=O)cc1 (stereo partly drawn) [Compound 235, (3R,3aS,6aR)-Hexahydrofuro[2,3-b]furan-3-yl N-((1S,2R)-1-benzyl-3-(4-carbamoyloxy-2,2-dimethylbutyl)[(4-methoxyphenyl)sulfonyl]amino-2-hydroxypropyl)carbamate] |  | < 1 | IC50 (HIV-1 (strain IIIB); [2]): ≤ 100 nM |
| COC(=N[N+](=O)[O-])NCCC(C)(C)CN(CC(O)C(Cc1ccccc1)NC(=O)OC1COC2OCCC12)S(=O)(=O)c1ccc(OC)cc1 (centres unmarked) [Compound 223] |  | < 1 | IC50 (HIV-1 (strain IIIB); [2]): ≤ 100 nM |
| COc1ccc(S(=O)(=O)N(CCC(C)=O)C[C@@H](O)[C@H](Cc2ccccc2)NC(=O)O[C@H]2CO[C@H]3OCC[C@H]32)cc1 [Compound 280, {(1S,2R)-3-[(4-methoxybenzenesulfonyl)-(3-butanonyl)-amino]-1-benzyl-2-hydroxy-propyl}-carbamic acid (3R,3aS,6aR)hexahydro-furo[2,3-b]furan-3-yl ester] |  | < 1 | IC50 (HIV-1 (strain IIIB); [2]): 100 to 500 nM |
| CC(C)(CCNC(=O)c1ccccc1)CN(C[C@@H](O)[C@H](Cc1ccccc1)NC(=O)O[C@H]1CO[C@H]2OCC[C@H]21)S(=O)(=O)c1ccc2c(c1)OCO2 [Compound 377] |  |  | IC50 (HIV-1 (strain IIIB); [4]): 1 to 10 nM |
| CC(C)(C)OC(=O)N[C@@H](Cc1ccccc1)[C@H](O)CN(CCC#N)S(=O)(=O)c1cccc(N)c1 [Compound 127] |  | 10 to 100 |  |
| CC(C)(CCC#N)CN(C[C@@H](O)[C@H](Cc1ccccc1)NC(=O)OC(C)(C)C)S(=O)(=O)c1ccc2c(c1)OCO2 [Compound 6, {(1S,2R)-3-[(Benzo[1,3]dioxole-5-sulfonyl)-(4-cyano-2,2-dimethyl-butyl)-amino]-1-benzyl-2-hydroxy-propyl}-carbamic acid tert-butyl ester] |  | < 1 |  |
| CC(C)(CCCCN)CN(CC(O)[C@H](Cc1ccccc1)NC(=O)OC1CCOC1)S(=O)(=O)c1ccc(N)cc1 (stereo partly drawn) [Compound 296, (3S)-tetrahydro-3-furanyl N-(1S,2R)-3-[(4-aminophenylsulfonyl)(6-amino-2,2-dimethylhexyl)amino]-1-benzyl-2-hydroxypropylcarbamate] | 100 to 500 |  |  |
| COc1ccc(S(=O)(=O)N(CC(O)[C@H](Cc2ccccc2)NC(=O)OC(C)(C)C)CC(C)(C)CCOC(N)=O)cc1 (stereo partly drawn) [Compound 234, ter-Butyl N-((1S,2R)-1-benzyl-3-(4-carbamoyloxy-2,2-dimethylbutyl)[(4-methoxyphenyl)sulfonyl]amino-2-hydroxypropyl)carbamate] |  | < 1 |  |
| CC(C)(CCNC(=O)c1ccco1)CN(C[C@@H](O)[C@H](Cc1ccccc1)NC(=O)O[C@H]1CO[C@H]2OCC[C@H]21)S(=O)(=O)c1ccc2c(c1)OCO2 [Compound 378] |  |  | IC50 (HIV-1 (strain IIIB); [4]): 1 to 10 nM |
| COc1ccc(S(=O)(=O)N(CCC(C)CCC=O)C[C@@H](O)[C@H](Cc2ccccc2)NC(=O)OC(C)(C)C)cc1 (some centres unmarked) [Compound 277] |  | 1 to 10 |  |
| COc1ccc(S(=O)(=O)N(CCC(C)=O)C[C@@H](O)[C@H](Cc2ccccc2)NC(=O)OC(C)(C)C)cc1 [Compound 279] |  | 10 to 100 |  |
| CC(C)CN(CC(O)C(Cc1ccccc1)NC(=O)OC1CCOC1)S(=O)(=O)c1ccc(N)cc1 [Compound A, 4-amino-N-((2 syn, 3S)-2-hydroxy-4-phenyl-3-((S)-tetrahydrofuran-3-yloxycarbonylamino)-butyl)-N-isobutyl-benzenesulfonamide, reference compound] |  |  | IC50 (HIV-1 (strain IIIB); Human immunodeficiency virus 1, IIIB, MT4, MT-4 cells, comparison compound, read-out: IC50 in the MT-4 cell based assay): 80 nM; IC50 (HIV-1 (strain IIIB); Human immunodeficiency virus 1, IIIB, MT4, Table 13, MT-4 cell based assay, numeric value, comparison compound, read-out: IC50): 80 nM |
| CCNc1cccc(S(=O)(=O)N(CC(O)C(Cc2ccccc2)NC(=O)OC2COC3OCCC23)CC(C)(C)CCC#N)c1 [Compound 44, {(1S,2R)-3-[(3-N-ethylaminophenyl)sulfonyl]-(4-cyano-2,2-dimethyl-butyl)-amino]-1-benzyl-2-hydroxy-propyl}carbamic acid (3R,3aS,6aR)hexahydro-furo[2,3-b]furan-3-yl ester] |  | < 1 |  |
| CC(C)(CCNC(=O)C(C)(C)C)CN(C[C@@H](O)[C@H](Cc1ccccc1)NC(=O)O[C@H]1CO[C@H]2OCC[C@H]21)S(=O)(=O)c1ccc2c(c1)OCO2 [Compound 374] |  |  | IC50 (HIV-1 (strain IIIB); [4]): 1 to 10 nM |
| CC(CCC=O)CCN(C[C@@H](O)[C@H](Cc1ccccc1)NC(=O)OC(C)(C)C)S(=O)(=O)c1ccc2c(c1)OCO2 (some centres unmarked) [Compound 278] |  | 1 to 10 |  |
| COc1ccc(S(=O)(=O)N(CCC#N)C[C@@H](O)[C@H](Cc2ccccc2)NC(=O)OC(C)(C)C)cc1 [Compound 123] |  | 10 to 100 |  |
| CNC(=O)NCC(=O)NCCCCC(C)(C)CN(CC(O)C(Cc1ccccc1)NC(=O)OC1COC2OCCC12)S(=O)(=O)c1ccc2c(c1)OCO2 (centres unmarked) [Compound 543] |  |  | Ki (HIV-1 protease): < 1 nM |
| CC(C)(CCNC(=O)C1CCC1)CN(C[C@@H](O)[C@H](Cc1ccccc1)NC(=O)O[C@H]1CO[C@H]2OCC[C@H]21)S(=O)(=O)c1ccc2c(c1)OCO2 [Compound 375] |  |  | IC50 (HIV-1 (strain IIIB); [4]): 1 to 10 nM |
| CC(C)CC(=O)NCCC(C)(C)CN(C[C@@H](O)[C@H](Cc1ccccc1)NC(=O)O[C@H]1CO[C@H]2OCC[C@H]21)S(=O)(=O)c1ccc2c(c1)OCO2 [Compound 376] |  |  | IC50 (HIV-1 (strain IIIB); [4]): 1 to 10 nM |
| CNC(=O)NCC(=O)NCCC(C)(C)CN(CC(O)C(Cc1ccccc1)NC(=O)OC1COC2OCCC12)S(=O)(=O)c1ccc2c(c1)OCO2 (centres unmarked) [Compound 529] |  |  | Ki (HIV-1 protease): < 1 nM |
| CC(C)(CCNC(=O)c1cccs1)CN(C[C@@H](O)[C@H](Cc1ccccc1)NC(=O)O[C@H]1CO[C@H]2OCC[C@H]21)S(=O)(=O)c1ccc2c(c1)OCO2 [Compound 379] |  |  | IC50 (HIV-1 (strain IIIB); [4]): 1 to 10 nM |
| CNC(=O)NCC(=O)NCCCC(C)(C)CN(CC(O)C(Cc1ccccc1)NC(=O)OC1COC2OCCC12)S(=O)(=O)c1ccc2c(c1)OCO2 (centres unmarked) [Compound 536] |  |  | Ki (HIV-1 protease): < 1 nM |

Continued, in another order:

| IC50 (HIV-1 (strain IIIB); [3]) [nM] | Structure (SMILES) | Ki (HIV-1 protease; [1]) [nM] | further results |
| --- | --- | --- | --- |
| 100 to 500 | CC(C)(CCNC(=O)CNS(C)(=O)=O)CN(CC(O)C(Cc1ccccc1)NC(=O)OC1COC2OCCC12)S(=O)(=O)c1ccc2c(c1)OCO2 (centres unmarked) [Compound 528] |  |  |
| 100 to 500 | CC(=O)NCC(=O)NCCC(C)(C)CN(CC(O)C(Cc1ccccc1)NC(=O)OC1COC2OCCC12)S(=O)(=O)c1ccc2c(c1)OCO2 (centres unmarked) [Compound 523] |  |  |
| 100 to 500 | CC(C)(CCOC(=O)NO)CN(CC(O)C(Cc1ccccc1)NC(=O)OC1COC2OCCC12)S(=O)(=O)c1ccc2c(c1)OCO2 (centres unmarked) [Compound 605] |  |  |
| 100 to 500 | CC(C)(CCCCN)CN(CC(O)[C@H](Cc1ccccc1)NC(=O)OC1COCOC1)S(=O)(=O)c1ccc2c(c1)OCO2 (stereo partly drawn) [Compound 297, [1,3]-dioxan-5-yl N-(1S,2R)-3-[(1,3-benzodioxol-5-ylsulfonyl)(6-amino-2,2-dimethylhexyl)amino]-1-benzyl-2-hydroxypropylcarbamate] |  |  |
| 100 to 500 | CN(C)C(=NC#N)NCCC(C)(C)CN(CC(O)C(Cc1ccccc1)NC(=O)OC1COC2OCCC12)S(=O)(=O)c1ccc2c(c1)OCO2 (centres unmarked) [Compound 563] |  |  |
| 100 to 500 | CC(C)(CCNC(=O)CN)CN(CC(O)C(Cc1ccccc1)NC(=O)OC1COC2OCCC12)S(=O)(=O)c1ccc2c(c1)OCO2 [Compound 520, (3R,3aS,6aR)hexahydrofuro[2,3-b]furan-3-yl N-(1S,2R)-3-[(4-[(amino)acetylamino]-2,2-dimethylbutyl)(1,3-benzodioxol-5-ylsulfonyl)amino]-1-benzyl-2-hydroxypropylcarbamate] |  |  |
| 100 to 500 | CN(C)C(=O)NCC(=O)NCCC(C)(C)CN(CC(O)C(Cc1ccccc1)NC(=O)OC1COC2OCCC12)S(=O)(=O)c1ccc2c(c1)OCO2 (centres unmarked) [Compound 526] |  |  |
| 100 to 500 | CC(C)(CCNC(=O)CCC1CCCC1)CN(C[C@@H](O)[C@H](Cc1ccccc1)NC(=O)O[C@H]1CO[C@H]2OCC[C@H]21)S(=O)(=O)c1ccc2c(c1)OCO2 [Compound 402] |  |  |
| 100 to 500 | CC(C)(CCCCNC(=O)CNS(C)(=O)=O)CN(CC(O)C(Cc1ccccc1)NC(=O)OC1COC2OCCC12)S(=O)(=O)c1ccc2c(c1)OCO2 (centres unmarked) [Compound 542] |  |  |
| 100 to 500 | CN(C)C(=O)NCC(=O)NCCCCC(C)(C)CN(CC(O)C(Cc1ccccc1)NC(=O)OC1COC2OCCC12)S(=O)(=O)c1ccc2c(c1)OCO2 (centres unmarked) [Compound 540] |  |  |
| 100 to 500 | COCC(=O)NCC(=O)NCCC(C)(C)CN(CC(O)C(Cc1ccccc1)NC(=O)OC1COC2OCCC12)S(=O)(=O)c1ccc2c(c1)OCO2 (centres unmarked) [Compound 527] |  |  |
